Measured values as given in patent publication US20250353873A1, “COMPOUNDS AND METHODS FOR MODULATING APOE EXPRESSION” (Ionis Pharmaceuticals, Inc., priority 2024, published 2025).
“And” between values parts separate entries of the source, which are not always exact repeats. Identical values can stand only once. Strand notation (5' to 3'): a small letter for the sugar, then the base; units joined by * are phosphorothioate-linked, units joined directly phosphodiester-linked; [ ] holds rarer units or linkages, { } end groups; capitals alone tell only the bases. [PN] = cyclic guanidine phosphoramidate internucleoside linkage; [ms] = mesyl phosphoramidate linkage; e = 2'-O-(2-methoxyethyl) (MOE); k = constrained ethyl (cEt); [5mC] = 5-methylcytosine; d = 2'-deoxy (DNA)

How the values were obtained:
[1] = system: human APOE RNA; assay: Duration of action study in APOE C57BL/6NTac-Apoeem7250 knock-in mice (Example 16); type: in vivo; details: 300 μg ICV
Protocol: Modified oligonucleotides described above were tested in the APOE C57BL/6NTac-Apoeem7250 knock-in mouse model described above.
APOE C57BL/6NTac-Apoeem7250 knock-in mice were divided into groups of 2-4 mice each. Each mouse received a single intracerebroventricular (ICV) bolus of 300 μg of modified oligonucleotide. A group of 2-4 mice received a single ICV bolus with PBS as a negative control.
Mice were sacrificed at various timepoints as indicated in the table below and RNA was extracted from cortical brain tissue and spinal cord for quantitative real-time RT-PCR analysis of RNA expression of APOE using primer probe set RTS3073 (described herein above). APOE RNA levels were normalized to mouse Ppia. Mouse Ppia was amplified using primer probe set m_cyclo24 (described herein above). Results are presented as percent human APOE RNA relative to the amount of human APOE RNA in PBS treated animals, (% control). Each experiment is identified in separate tables below.

[2] = system: human APOE RNA; assay: Activity in APOE C57BL/6NTac-Apoeem7250 knock-in mice, single ICV bolus, 4 weeks (Example 10); type: in vivo; details: single ICV bolus 300 μg, 4 weeks post treatment, normalized to mouse Ppia
Method in brief: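 Knock-in mice (2–4 per group) received one 300 μg ICV bolus of oligonucleotide or PBS. After four weeks, human APOE RNA in cortex and spinal cord measured by RT-qPCR (primer probe set RTS3073), normalized to mouse Ppia, expressed as % of PBS controls.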

[3] = system: human APOE RNA; assay: Activity in APOE C57BL/6NTac-Apoeem7250 knock-in mice, single ICV bolus, 16 weeks (Example 12); type: in vivo; details: single ICV bolus 300 μg, 16 weeks post treatment, normalized to mouse Ppia
Method in brief: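 Knock-in mice (3-4 per group) received one ICV bolus of 300 μg oligonucleotide, PBS as control. After 16 weeks, human APOE RNA in cortex and spinal cord measured by RT-qPCR, normalized to mouse Ppia, and reported as % of PBS control.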

[4] = system: human APOE RNA; assay: Dose-dependent inhibition of human APOE RNA in HepG2 cells, electroporation, 50,000 cells per well, RT-PCR normalized to GAPDH (Example 4, Tables 8-10); type: cell-based; details: HepG2 cells, electroporation, Table 8; for APOE RNA (% UTC) 5 nM / APOE RNA (% UTC) 13 nM / APOE RNA (% UTC) 33 nM / APOE RNA (% UTC) 82 nM / APOE RNA (% UTC) 205 nM / APOE RNA (% UTC) 512 nM / IC50: 24-hour treatment; for APOE RNA (% UTC) 1,280 nM: 24-hour treatment, 1,280 nM; for APOE RNA (% UTC) 3,200 nM: 24-hour treatment, 3,200 nM; for APOE RNA (% UTC) 8,000 nM: 24-hour treatment, 8,000 nM; for APOE RNA (% UTC) 20,000 nM: 24-hour treatment, 20,000 nM; for IC50: reduction of human APOE RNA
Method in brief: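 HepG2 cells, 50,000 per well, electroporated with modified oligonucleotide at various concentrations. APOE RNA quantified by RT-PCR with human primer probe set RTS3073, normalized to GAPDH. Values are percent APOE RNA relative to untreated control cells.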

[5] = system: human APOE RNA; assay: Activity in APOE C57BL/6NTac-Apoeem7250 knock-in mice, single ICV bolus, 20 weeks (Example 13); type: in vivo; details: single ICV bolus 300 μg, 20 weeks post treatment, normalized to mouse Ppia
Method in brief: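 Knock-in mice (n=4) given a single ICV bolus of 300 μg oligonucleotide, PBS as control. After 20 weeks, human APOE RNA in cortex and spinal cord measured by RT-qPCR, normalized to mouse Ppia, expressed as % of PBS-treated animals.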

[6] = system: human APOE RNA; assay: Activity in APOE C57BL/6NTac-Apoeem7250 knock-in mice, single ICV bolus, 8 weeks (Example 11); type: in vivo; details: single ICV bolus 300 μg, 8 weeks post treatment, normalized to mouse Ppia
Method in brief: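 Human APOE knock-in C57BL/6NTac mice given one ICV bolus of 300 μg oligonucleotide; PBS-dosed group as control. At 8 weeks, cortex and spinal cord RNA measured by qRT-PCR (human probe RTS3073), normalized to mouse Ppia, expressed as % of PBS control.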

Substance | APOE RNA (% control) Cortex ([1]; 14 days post-dose) [% control] | APOE RNA (% control) Cortex ([1]; 112 days post-dose) [% control] | APOE RNA (% control) Spinal Cord ([1]; 14 days post-dose) [% control] | APOE RNA (% control) Spinal Cord ([1]; 112 days post-dose) [% control] | APOE RNA (% control) Cortex [2] [% control] | APOE RNA (% control) Spinal Cord [2] [% control] | APOE RNA (% control) Cortex [3] [% control] | APOE RNA (% control) Spinal Cord [3] [% control] | APOE RNA (% UTC) 5 nM [4] [% UTC] | APOE RNA (% UTC) 13 nM [4] [% UTC] | APOE RNA (% UTC) 33 nM [4] [% UTC] | APOE RNA (% UTC) 82 nM [4] [% UTC] | APOE RNA (% UTC) 205 nM [4] [% UTC] | APOE RNA (% UTC) 512 nM [4] [% UTC] | APOE RNA (% UTC) 1,280 nM [4] [% UTC] | APOE RNA (% UTC) 3,200 nM [4] [% UTC] | APOE RNA (% UTC) 8,000 nM [4] [% UTC] | APOE RNA (% UTC) 20,000 nM [4] [% UTC] | APOE RNA (% control) Cortex [6] | APOE RNA (% control) Spinal Cord [6] | other results
1721307: 6-10-4 MOE gapmer CTTGGTGAATCTTTATTAAA, linkages s[pn][pn][pn]oossssssssssoss (e[5mC]*eT[PN]eT[PN]eG[PN]eGeTdG*dA*dA*dT*d[5mC]*dT*dT*dT*dA*dT*eTeA*eA*eA) [compound 1721307] | 38 | 73 | 31 | 34 |  |  |  |  |  |  |  |  |  |  |  |  |  |  |  |  | 
1721303: 6-10-4 MOE gapmer TTGGTGAATCTTTATTAAAC, linkages s[pn][pn][pn]oossssssssssoss (eT*eT[PN]eG[PN]eG[PN]eTeGdA*dA*dT*d[5mC]*dT*dT*dT*dA*dT*dT*eAeA*eA*e[5mC]) [compound 1721303] | 36 | 75 | 32 | 40 |  |  |  |  |  |  |  |  |  |  |  |  |  |  |  |  | 
1721308: 6-10-4 MOE gapmer CTTGGTGAATCTTTATTAAA, linkages s[pn][pn][pn]oossssssszzsoss (e[5mC]*eT[PN]eT[PN]eG[PN]eGeTdG*dA*dA*dT*d[5mC]*dT*dT*dT[ms]dA[ms]dT*eTeA*eA*eA) [compound 1721308] | 48 | 85 | 45 | 42 |  |  |  |  |  |  |  |  |  |  |  |  |  |  |  |  | 
1778114: modified oligonucleotide complementary to human APOE RNA (eA*e[5mC]eTeTkG*kG*dT*dG[ms]dA[ms]dA*dT*d[5mC]*dT*dT*dT*dA[ms]eTeT*eA*eA; antisense) [compound 1778114] |  |  |  |  | 37 | 57 | 52 | 27 | 78 | 82 | 78 | 78 | 67 | 45 | 42 | 20 | 11 | 7 | 47 % control | 32 % control | IC50 [4]: 430 nM; APOE RNA (% control) Cortex [5]: 56 % control; APOE RNA (% control) Spinal Cord [5]: 26 % control
1652901: 6-10-4 MOE gapmer TTGGTGAATCTTTATTAAAC, linkages sooooossssssssssoss (antisense eT*eTeGeGeTeGdA*dA*dT*d[5mC]*dT*dT*dT*dA*dT*dT*eAeA*eA*e[5mC]) [compound 1652901] | 43 | 90 | 33 | 51 |  |  | 104 | 61 |  |  |  |  |  |  |  |  |  |  | 47 % control and 49 % control | 18 % control and 27 % control | 
1778115: modified oligonucleotide complementary to human APOE RNA (eA*e[5mC]eTeTkGkG*dT*dG[ms]dA[ms]dA*dT*d[5mC]*dT*dT*dT*dA[ms]eTeT*eA*eA; antisense) [compound 1778115] |  |  |  |  | 37 | 66 | 44 | 28 | 76 | 75 | 73 | 85 | 72 | 43 | 38 | 29 | 32 | 6 | 46 % control | 27 % control | IC50 [4]: 530 nM; APOE RNA (% control) Cortex [5]: 77 % control; APOE RNA (% control) Spinal Cord [5]: 28 % control
